The values below are quoted from earlier work in US6063370A, “Macromolecular complexes for drug delivery” (The Board of Trustees of the University of Illinois, priority 1998, dated 2000).

The conditions of the data set: heparin having an Mw of about 6,000.

heparin: the Bioavailability is 85%.
